Measured values from patent US20120046253A1, “STABLE PHARMACOLOGICALLY ACTIVE COMPOSITIONS INCLUDING VITAMIN D CONTAINING AND CORTICOSTEROID COMPOUNDS WITH LOW pH COMPATIBILITY” (priority 2006, published 2012).

Experiments:
[1] = Stability of the calcipotriene and betamethasone dipropionate composition at 55° C. (quantitative HPLC); format: physicochemical; settings: Example 1 ointment
Description: (§1) In both of the above cases, stability is measured after incubation in a closed container at the recited temperature for the recited amount of time; stability is determined by any quantitative assay for the recited component, and is preferably determined by HPLC methodologies known in the art.

[2] = reportedly; cited from earlier work
[3] = Stability of the calcipotriene and betamethasone dipropionate composition at 40° C. (quantitative HPLC); format: physicochemical
Description: as §1
The amount of the recited components in Table 1 were measured by quantitiative HPLC 1-2 days after the cooling (Time zero) and at the recited times after storage at the recited temperatures.
The amount of the recited components in Table 1 were measured by quantitiative HPLC 1-2 days after the cooling (Time zero) and at the recited times after storage at the recited temperatures).

[4] = asserted in U.S. Pat. No. 5,763,426; cited from earlier work

SMILES | Assay (%) 3 days ([1]; stored at 55° C. 3 days) | Assay (%) Time zero ([1]; time zero (Table 2)) | pH at which most stable [2] | Assay (%) Time zero ([3]; Example 1 ointment (medium chain triglyceride), 1-2 days after cooling, HPLC) | Assay (%) 1 months ([3]; Example 1 ointment, stored at 40° C. 1 month) | Assay (%) 2 months ([3]; Example 1 ointment, stored at 40° C. 2 months) | Assay (%) 3 months ([3]; Example 1 ointment, stored at 40° C. 3 months) | Assay Time zero ([3]; Example 2 ointment (polysorbate 80), time zero) | Assay 1 months ([3]; Example 2 ointment, stored at 40° C. 1 month) | Assay 2 months ([3]; Example 2 ointment, stored at 40° C. 2 months) | stability of crystal form [4]
C=C1/C(=C\C=C2/CCC[C@]3(C)[C@@H]([C@H](C)/C=C/[C@@H](O)C4CC4)CC[C@@H]23)C[C@@H](O)C[C@@H]1O [Calcipotriene, calcipotriene] | 96.4% | 95.8% | greater than 8 | 95.8% | 98.0% | 97.1% | 100.5% | 99.1% | 97.9% | 97.4% | 
C=C1/C(=C\C=C2/CCC[C@]3(C)[C@@H]([C@H](C)/C=C/[C@@H](O)C4CC4)CC[C@@H]23)C[C@@H](O)C[C@@H]1O [calcipotriol hydrate] |  |  |  |  |  |  |  |  |  |  | surprisingly stable
